The OPERA property sets (Mansouri et al. 2018)

Compound	logP
COc1ccc(N)c(C)c1	1.23
Nc1ccccc1-c1ccccc1N	1.34
O=[N+]([O-])c1ccc2ccccc2c1	3.24
Cc1ccc(C)c(N)c1	1.83
Cc1ccc(N)c(N)c1	0.66
Cc1ccc2cccc([N+](=O)[O-])c2n1	1.99
Nc1ccc(Oc2ccccc2)cc1	2.96
Nc1ccc2ccc3cccc4ccc1c2c34	4.31
Cc1ccc(O)c(N)c1	1.16
COc1cc(-c2ccc(N)c(OC)c2)ccc1N	1.81
O=[N+]([O-])c1cccc2c([N+](=O)[O-])cccc12	2.58
O=[N+]([O-])c1cccc2cccc([N+](=O)[O-])c12	2.52
Nc1cccc(C(F)(F)F)c1	2.29
Nc1cccc2c1Cc1ccccc1-2	3.18
O=[N+]([O-])c1ccc2c3c(cccc13)CC2	3.85
Nc1cc2ccccc2c2ccccc12	3.56
Nc1ccc2c3c(cccc13)-c1ccccc1-2	4.2
Nc1ccc2c(c1)Cc1ccccc1-2	3.14
Nc1cc(Cl)ccc1O	1.81
Nc1cccc2cc3ccccc3cc12	3.69
Nc1ccc(Cl)cc1[N+](=O)[O-]	2.72
O=[N+]([O-])c1cc([N+](=O)[O-])c2ccccc2c1	2.83
Cc1ccc(N)cc1N	0.14
O=C1Nc2ccc([N+](=O)[O-])cc2C1=O	0.47
